Target: Proteasome chymotrypsin-like activity (S26 protein from RPMI8226 cells) (Homo sapiens, UniProt P28074)
Assay type: biochemical
Conditions: S26 protein from RPMI8226 cell extract 2 ug/well, substrate 20 uM, 37° C., 90 minutes; read-out: Proteasome chymotrypsin-like activity inhibition IC50
In short: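 Inhibition is measured in crude proteasome (S26) from RPMI8226 cells at 2 ug/well, using 20 uM substrate specific to each activity: Suc-LLVY-AMC for chymotrypsin-like, Z-LLE-AMC for caspase-like. Compounds span a dilution series from 10 uM.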

Proteasome chymotrypsin-like activity (S26 protein from RPMI8226 cells), sequence (P28074 60-263 limits assumed): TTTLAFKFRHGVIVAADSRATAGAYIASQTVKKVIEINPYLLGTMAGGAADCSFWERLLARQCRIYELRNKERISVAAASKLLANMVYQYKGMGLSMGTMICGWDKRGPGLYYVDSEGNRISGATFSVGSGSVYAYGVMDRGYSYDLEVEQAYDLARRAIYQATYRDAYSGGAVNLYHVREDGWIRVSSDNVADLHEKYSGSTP

Compound | IC50
Cc1cc(COCC2=NOC(Cc3ccccc3)(C(=O)N[C@@H](Cc3ccccc3)B(O)O)C2)ccn1 (stereo partly drawn) [Example 277, ((1R)-1-(5-benzyl-3-(((2-methylpyridin-4-yl)methoxy)methyl)-4,5-dihydroisoxazol-5-carboxamido)-2-phenylethyl)boronic acid] | < 10 nM
CC(C)C[C@H](NC(=O)C1(Cc2ccccc2)CC(COc2cccc3ccccc23)=NO1)B(O)O (stereo partly drawn) [Example 278] | < 10 nM
O=C(N[C@@H](Cc1ccccc1)B(O)O)C1(Cc2ccccc2)CC(COc2cccc3ccccc23)=NO1 (stereo partly drawn) [Example 279, ((1R)-1-(5-benzyl-3-((naphthalen-1-yloxy)methyl)-4,5-dihydroisoxazol-5-carboxamido)-2-phenylethyl)boronic acid] | < 10 nM
CC(C)C[C@H](NC(=O)C1(Cc2ccccc2)CC(CNC(=O)c2cccc(C(F)(F)F)c2)=NO1)B(O)O (stereo partly drawn) [Example 280] | < 10 nM
O=C(NCC1=NOC(Cc2ccccc2)(C(=O)N[C@@H](Cc2ccccc2)B(O)O)C1)c1cccc(C(F)(F)F)c1 (stereo partly drawn) [Example 281, ((1R)-1-(5-benzyl-3-((3-(trifluoromethyl)benzamido)methyl)-4,5-dihydroisoxazol-5-carboxamido)-2-phenylethyl)boronic acid] | < 10 nM
COc1ccc(C(=O)NCC2=NOC(Cc3ccccc3)(C(=O)N[C@@H](CC(C)C)B(O)O)C2)cc1 (stereo partly drawn) [Example 282] | < 10 nM
COc1ccc(C(=O)NCC2=NOC(Cc3ccccc3)(C(=O)N[C@@H](Cc3ccccc3)B(O)O)C2)cc1 (stereo partly drawn) [Example 283, ((1R)-1-(5-benzyl-3-((4-methoxybenzamido)methyl)-4,5-dihydroisoxazol-5-carboxamido)-2-phenylethyl)boronic acid] | < 10 nM
COc1cccc(C(=O)NCC2=NOC(Cc3ccccc3)(C(=O)N[C@@H](CC(C)C)B(O)O)C2)c1 (stereo partly drawn) [Example 284] | < 10 nM
COc1cccc(C(=O)NCC2=NOC(Cc3ccccc3)(C(=O)N[C@@H](Cc3ccccc3)B(O)O)C2)c1 (stereo partly drawn) [Example 285, ((1R)-1-(5-benzyl-3-((3-methoxybenzamido)methyl)-4,5-dihydroisoxazol-5-carboxamido)-2-phenylethyl)boronic acid] | < 10 nM
CC(C)C[C@H](NC(=O)C1(Cc2ccccc2)CC(CNC(=O)c2ccccc2Cl)=NO1)B(O)O (stereo partly drawn) [Example 286] | < 10 nM
CC(C)C[C@H](NC(=O)C1(Cc2ccccc2)CC(CNC(=O)c2ccc(Cl)cc2)=NO1)B(O)O (stereo partly drawn) [Example 287] | < 10 nM
O=C(NCC1=NOC(Cc2ccccc2)(C(=O)N[C@@H](Cc2ccccc2)B(O)O)C1)c1nccc2ccccc12 (stereo partly drawn) [Example 288, ((1R)-1-(5-benzyl-3-((isoquinolin-1-carboxamido)methyl)-4,5-dihydroisoxazol-5-carboxamido)-2-phenylethyl)boronic acid] | < 10 nM
CC[C@H](NC(=O)C1(Cc2ccccc2)CC(CNC(=O)c2nccc3ccccc23)=NO1)B(O)O (stereo partly drawn) [Example 289, ((1R)-1-(5-benzyl-3-((isoquinolin-1-carboxamido)methyl)-4,5-dihydroisoxazol-5-carboxamido)propyl)boronic acid] | < 25 nM
CC(C)[C@H](NC(=O)C1(Cc2ccccc2)CC(CNC(=O)c2nccc3ccccc23)=NO1)B(O)O (stereo partly drawn) [Example 290, ((1R)-1-(5-benzyl-3-((isoquinolin-1-carboxamido)methyl)-4,5-dihydroisoxazol-5-carboxamido)-2-methylpropyl)boronic acid] | < 10 nM
O=C(NCC1=NOC(Cc2ccccc2)(C(=O)N[C@@H](Cc2ccccc2)B(O)O)C1)c1cc(Cl)ccc1Cl (stereo partly drawn) [Example 296, ((1R)-1-(5-benzyl-3-((2,5-dichlorobenzamido)methyl)-4,5-dihydroisoxazol-5-carboxamido)-2-phenylethyl)boronic acid] | < 10 nM
CC[C@H](NC(=O)C1(Cc2ccccc2)CC(CNC(=O)c2cccn3ccnc23)=NO1)B(O)O (stereo partly drawn) [Example 297, ((1R)-1-(5-benzyl-3-((imidazo[1,2-a]pyridin-8-carboxamido)methyl)-4,5-dihydroisoxazol-5-carboxamido)propyl)boronic acid] | < 25 nM
CC(C)[C@H](NC(=O)C1(Cc2ccccc2)CC(CNC(=O)c2cccn3ccnc23)=NO1)B(O)O (stereo partly drawn) [Example 298, ((1R)-1-(5-benzyl-3-((imidazo[1,2-a]pyridin-8-carboxamido)methyl)-4,5-dihydroisoxazol-5-carboxamido)-2-methylpropyl)boronic acid] | < 10 nM
O=C(NCC1=NOC(Cc2ccccc2)(C(=O)N[C@@H](Cc2ccccc2)B(O)O)C1)c1cccc2ccccc12 (stereo partly drawn) [Example 299, ((1R)-1-(3-((1-naphthamido)methyl)-5-benzyl-4,5-dihydroisoxazol-5-carboxamido)-2-phenylethyl)boronic acid] | < 10 nM
O=C(NCC1=NOC(Cc2ccccc2)(C(=O)N[C@@H](Cc2ccccc2)B(O)O)C1)c1cccn2ccnc12 (stereo partly drawn) [Example 300, ((1R)-1-(5-benzyl-3-((imidazo[1,2-a]pyridin-8-carboxamido)methyl)-4,5-dihydroisoxazol-5-carboxamido)-2-phenylethyl)boronic acid] | < 10 nM
CC(C)C[C@H](NC(=O)C1(Cc2ccccc2)CC(CNC(=O)c2cccc3nccn23)=NO1)B(O)O (stereo partly drawn) [Example 301] | < 10 nM

Compound | IC50
O=C(NCC1=NOC(Cc2ccccc2)(C(=O)N[C@@H](Cc2ccccc2)B(O)O)C1)c1cccc2nccn12 (stereo partly drawn) [Example 302, ((1R)-1-(5-benzyl-3-((imidazo[1,2-a]pyridin-5-carboxamido)methyl)-4,5-dihydroisoxazol-5-carboxamido)-2-phenylethyl)boronic acid] | < 10 nM
CC[C@H](NC(=O)C1(Cc2ccccc2)CC(CNC(=O)c2cccc3ccccc23)=NO1)B(O)O (stereo partly drawn) [Example 303, ((1R)-1-(3-((1-naphthamido)methyl)-5-benzyl-4,5-dihydroisoxazol-5-carboxamido)propyl)boronic acid] | < 10 nM
CC(C)[C@H](NC(=O)C1(Cc2ccccc2)CC(CNC(=O)c2cccc3ccccc23)=NO1)B(O)O (stereo partly drawn) [Example 304, ((1R)-1-(3-((1-naphthamido)methyl)-5-benzyl-4,5-dihydroisoxazol-5-carboxamido)-2-methylpropyl)boronic acid] | < 10 nM
CC(C)C[C@H](NC(=O)C1(Cc2ccccc2)CC(CNC(=O)c2cccn3cnnc23)=NO1)B(O)O (stereo partly drawn) [Example 305] | < 10 nM
O=C(NCC1=NOC(Cc2ccccc2)(C(=O)N[C@@H](Cc2ccccc2)B(O)O)C1)c1cccn2cnnc12 (stereo partly drawn) [Example 306, ((1R)-1-(3-(([1,2,4]triazolo[4,3-a]pyridin-8-carboxamido)methyl)-5-benzyl-4,5-dihydroisoxazol-5-carboxamido)-2-phenylethyl)boronic acid] | < 10 nM
Cc1cccc(C(=O)NCC2=NOC(Cc3ccccc3)(C(=O)N[C@@H](CC(C)C)B(O)O)C2)c1 (stereo partly drawn) [Example 307] | < 10 nM
CC(C)C[C@H](NC(=O)C1(Cc2ccccc2)CC(CNC(=O)c2ccnc(Cl)c2)=NO1)B(O)O (stereo partly drawn) [Example 311] | < 10 nM
CC(C)C[C@H](NC(=O)C1(Cc2ccccc2)CC(CNC(=O)c2cccc3ncnn23)=NO1)B(O)O (stereo partly drawn) [Example 312] | < 25 nM
O=C(NCC1=NOC(Cc2ccccc2)(C(=O)N[C@@H](Cc2ccccc2)B(O)O)C1)c1cccc2ncnn12 (stereo partly drawn) [Example 313, ((1R)-1-(3-(([1,2,4]triazolo[1,5-a]pyridin-5-carboxamido)methyl)-5-benzyl-4,5-dihydroisoxazol-5-carboxamido)-2-phenylethyl)boronic acid] | < 10 nM
CC[C@H](NC(=O)C1(Cc2ccccc2)CC(CNC(=O)c2cc(Cl)ccc2Cl)=NO1)B(O)O (stereo partly drawn) [Example 314, ((1R)-1-(5-benzyl-3-((2,5-dichlorobenzamido)methyl)-4,5-dihydroisoxazol-5-carboxamido)propyl)boronic acid] | < 10 nM
CC(C)[C@H](NC(=O)C1(Cc2ccccc2)CC(CNC(=O)c2cc(Cl)ccc2Cl)=NO1)B(O)O (stereo partly drawn) [Example 315, ((1R)-1-(5-benzyl-3-((2,5-dichlorobenzamido)methyl)-4,5-dihydroisoxazol-5-carboxamido)-2-methylpropyl)boronic acid] | < 10 nM
CC(C)C[C@H](NC(=O)C1(Cc2ccccc2)CC(CNC(=O)c2cccc(C#N)c2)=NO1)B(O)O (stereo partly drawn) [Example 316] | < 10 nM
N#Cc1cccc(C(=O)NCC2=NOC(Cc3ccccc3)(C(=O)N[C@@H](Cc3ccccc3)B(O)O)C2)c1 (stereo partly drawn) [Example 317, ((1R)-1-(5-benzyl-3-((3-cyanobenzamido)methyl)-4,5-dihydroisoxazol-5-carboxamido)-2-phenylethyl)boronic acid] | < 10 nM
CC[C@H](NC(=O)C1(Cc2ccccc2)CC(CNC(=O)c2cccc(Cl)n2)=NO1)B(O)O (stereo partly drawn) [Example 318, ((1R)-1-(5-benzyl-3-((6-chloropicolinamido)methyl)-4,5-dihydroisoxazol-5-carboxamido)propyl)boronic acid] | < 25 nM
CC(C)[C@H](NC(=O)C1(Cc2ccccc2)CC(CNC(=O)c2cccc(Cl)n2)=NO1)B(O)O (stereo partly drawn) [Example 319, ((1R)-1-(5-benzyl-3-((6-chloropicolinamido)methyl)-4,5-dihydroisoxazol-5-carboxamido)-2-methylpropyl)boronic acid] | < 10 nM
CC(=O)Nc1cccc(C(=O)NCC2=NOC(Cc3ccccc3)(C(=O)N[C@@H](CC(C)C)B(O)O)C2)c1 (stereo partly drawn) [Example 320] | < 10 nM
CC(C)C[C@H](NC(=O)C1(Cc2ccccc2)CC(CNC(=O)c2cccc(N(C)C)c2)=NO1)B(O)O (stereo partly drawn) [Example 321] | < 10 nM
COc1cccc(C(=O)NCC2=NOC(Cc3ccccc3)(C(=O)N[C@@H](CC(C)C)B(O)O)C2)n1 (stereo partly drawn) [Example 322] | < 10 nM
CC(C)C[C@H](NC(=O)C1(Cc2ccccc2)CC(CNC(=O)c2cccc(C#N)n2)=NO1)B(O)O (stereo partly drawn) [Example 323] | < 10 nM
